Consider 3 compounds from patent US11401279B2, “Pyrido[3,2-d]pyrimidine compounds as immunomodulators” (Incyte Corporation, priority 2019, dated 2022).

This assay deals with PD-L1 aAPC/CHO-K1 cells and Jurkat-PD-1-NFAT effector cells. In words: Nuclear factor of activated T-cells (NFAT) assay. It is filed as cell-based. Conditions: Cricetulus griseus, CHO-K1; luminescence, 24 hours. The method, boiled down:
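PD-L1 aAPC/CHO-K1 cells (8000/well) co-cultured with Jurkat-PD-1-NFAT effector cells (10,000/well) plus compound in RPMI/1% FBS, 0.4% DMSO, top concentration 2 μM, 24 h at 37 °C. NFAT luciferase read by Bio-Glo luminescence. Fold induction normalized to DMSO; maximum induction relative to control compound; EC50 from curve fit.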
A word on the EC50: it is the concentration needed to bring the measured effect to its halfway point. Higher therefore signals a need for much substance. On to `Cc1c(Nc2nc(C(F)F)nc3cc(CN4CC[C@@H](O)C4)cnc23)cccc1-c1cccc(NC(=O)c2nc3c(n2C)CCN(CCC24CCC(C(=O)O)(CC2)C4)C3)c1Cl` [Example 1, (R)-4-(2-(2-((2-chloro-3′-((2-(difluoromethyl)-7-((3-hydroxypyrrolidin-1-yl)methyl)pyrido[3,2-d]pyrimidin-4-yl)amino)-2′-methyl-[1,1′-biphenyl]-3-yl)carbamoyl)-1-methyl-1,4,6,7-tetrahydro-5H-imidazo[4,5-c]pyridin-5-yl)ethyl)bicyclo[2.2.1]heptane-1-carboxylic Acid], for which the half-maximal effective concentration (EC50) is 2 nM.

As for `Cc1c(Nc2nc(C(F)F)nc3cc(CN4CC[C@@](C)(O)C4)cnc23)cccc1-c1cccc(NC(=O)c2nc3c(n2C)CCN(CCC24CCC(C(=O)O)(CC2)C4)C3)c1Cl` [Example 2, (R)-4-(2-(2-((2-chloro-3′-((2-(difluoromethyl)-7-((3-hydroxy-3-methylpyrrolidin-1-yl)methyl)pyrido[3,2-d]pyrimidin-4-yl)amino)-2′-methyl-[1,1′-biphenyl]-3-yl)carbamoyl)-1-methyl-1,4,6,7-tetrahydro-5H-imidazo[4,5-c]pyridin-5-yl)ethyl)bicyclo[2.2.1]heptane-1-carboxylic Acid], the EC50 was found to be 4 nM.

In turn, `Cc1c(NC(=O)c2nc3c(n2C)CCN(CCC24CCC(C(=O)O)(CC2)C4)C3)cccc1-c1cccc(Nc2nc(C(F)F)nc3cc(CN4CC[C@@H](O)C4)cnc23)c1C` [Example 5, (R)-4-(2-(2-((3′-((2-(difluoromethyl)-7-((3-hydroxypyrrolidin-1-yl)methyl)pyrido[3,2-d]pyrimidin-4-yl)amino)-2,2′-dimethyl-[1,1′-biphenyl]-3-yl)carbamoyl)-1-methyl-1,4,6,7-tetrahydro-5H-imidazo[4,5-c]pyridin-5-yl)ethyl)bicyclo[2.2.1]heptane-1-carboxylic Acid] gave a 50% effective concentration (EC50) of 9.2 nM. Against the preceding compound, the EC50 is about 2.3-fold higher.
